Test results as given in patent US8791132B2, “Compounds and methods for treatment of hypertension” (Medivation Technologies, Inc., priority 2011, dated 2014).
Where two headings read alike, the source gives them in different places.

Columns and labels:
[1] = molecular target: T1, human recombinant adrenergic α2A receptor (Homo sapiens, UniProt P08913); assay: Radioligand binding, adrenergic α2A ([3H]MK-912)
T1 construct: expressed in transfected cells; host or cells: insect Sf9 cells
T1 sequence (P08913 1-465): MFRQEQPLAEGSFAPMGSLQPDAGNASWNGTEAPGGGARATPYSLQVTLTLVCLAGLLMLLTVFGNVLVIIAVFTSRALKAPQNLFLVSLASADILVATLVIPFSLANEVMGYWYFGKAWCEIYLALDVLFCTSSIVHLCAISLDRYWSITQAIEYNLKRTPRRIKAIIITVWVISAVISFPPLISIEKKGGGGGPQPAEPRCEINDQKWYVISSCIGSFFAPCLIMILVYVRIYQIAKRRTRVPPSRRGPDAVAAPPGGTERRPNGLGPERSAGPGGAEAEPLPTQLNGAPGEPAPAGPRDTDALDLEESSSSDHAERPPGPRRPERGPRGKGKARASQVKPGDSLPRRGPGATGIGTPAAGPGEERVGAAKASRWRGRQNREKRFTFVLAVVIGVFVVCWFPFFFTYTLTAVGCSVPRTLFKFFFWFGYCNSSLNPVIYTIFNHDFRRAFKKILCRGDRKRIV
Method in brief: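 Displacement of 1 nM [3H]MK-912 from receptor produced in insect Sf9 cells was measured after 60 min at 25 °C. Readout: percent inhibition of specific binding.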

[2] = molecular target: T2, human recombinant adrenergic α2B receptor (Homo sapiens, UniProt P18089); assay: Radioligand binding, adrenergic α2B ([3H]Rauwolscine)
T2 construct: expressed in transfected cells; host or cells: CHO-K1
T2 sequence (P18089 1-450): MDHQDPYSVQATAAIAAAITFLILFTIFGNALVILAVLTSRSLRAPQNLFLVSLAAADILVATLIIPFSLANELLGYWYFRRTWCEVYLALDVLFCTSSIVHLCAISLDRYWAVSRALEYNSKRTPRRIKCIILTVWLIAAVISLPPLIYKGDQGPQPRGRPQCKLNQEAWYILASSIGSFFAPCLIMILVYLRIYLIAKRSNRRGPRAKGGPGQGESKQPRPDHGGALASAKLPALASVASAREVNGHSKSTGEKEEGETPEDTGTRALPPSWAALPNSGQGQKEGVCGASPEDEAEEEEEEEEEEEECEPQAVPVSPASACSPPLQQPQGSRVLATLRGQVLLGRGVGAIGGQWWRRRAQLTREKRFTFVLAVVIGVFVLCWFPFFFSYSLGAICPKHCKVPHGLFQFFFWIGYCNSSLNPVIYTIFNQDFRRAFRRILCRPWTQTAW
Method in brief: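 Assay used CHO-K1-expressed human α2B receptor in Tris-HCl pH 7.4 buffer with MgCl2, EDTA and BSA; 60 min incubation at 25 °C.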

[3] = molecular target: T3, human recombinant adrenergic α1D receptor (Homo sapiens, UniProt P25100); assay: Radioligand binding, adrenergic α1D ([3H]Prazosin)
T3 construct: expressed in transfected cells; host or cells: HEK-293
T3 sequence (P25100 1-572): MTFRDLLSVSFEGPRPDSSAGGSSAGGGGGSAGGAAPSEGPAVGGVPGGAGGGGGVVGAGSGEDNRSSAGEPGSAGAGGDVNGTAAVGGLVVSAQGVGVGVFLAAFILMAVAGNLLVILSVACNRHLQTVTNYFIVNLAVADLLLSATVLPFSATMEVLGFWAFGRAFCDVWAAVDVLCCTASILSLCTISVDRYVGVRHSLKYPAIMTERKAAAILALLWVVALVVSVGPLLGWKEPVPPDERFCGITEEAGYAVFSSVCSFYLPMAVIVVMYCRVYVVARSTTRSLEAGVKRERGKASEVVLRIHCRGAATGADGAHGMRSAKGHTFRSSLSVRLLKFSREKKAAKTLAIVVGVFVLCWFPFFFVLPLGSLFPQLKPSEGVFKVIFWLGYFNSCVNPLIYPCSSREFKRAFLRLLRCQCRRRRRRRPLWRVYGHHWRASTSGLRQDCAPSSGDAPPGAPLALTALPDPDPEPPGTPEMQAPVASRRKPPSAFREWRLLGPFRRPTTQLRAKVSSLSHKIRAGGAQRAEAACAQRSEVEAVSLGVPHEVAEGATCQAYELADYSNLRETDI
Method: Compounds were incubated with 0.6 nM [3H]Prazosin for 60 min at 25° C. Non-specific binding was estimated in the presence of 10 μM phentolamine. Receptor proteins were filtered and washed, the filters were then counted to determine [3H]Prazosin specifically bound. […] Biochemical assay results are presented as the percent inhibition of specific binding in Table B1.

[4] = molecular target: T4, rat adrenergic α1B receptor (Rattus norvegicus, UniProt P15823); assay: Radioligand binding, adrenergic α1B ([3H]Prazosin)
T4 construct: rat adrenergic α1B receptor obtained from Wistar Rat liver; from tissue; host or cells: Wistar rat liver
T4 sequence (P15823 1-515): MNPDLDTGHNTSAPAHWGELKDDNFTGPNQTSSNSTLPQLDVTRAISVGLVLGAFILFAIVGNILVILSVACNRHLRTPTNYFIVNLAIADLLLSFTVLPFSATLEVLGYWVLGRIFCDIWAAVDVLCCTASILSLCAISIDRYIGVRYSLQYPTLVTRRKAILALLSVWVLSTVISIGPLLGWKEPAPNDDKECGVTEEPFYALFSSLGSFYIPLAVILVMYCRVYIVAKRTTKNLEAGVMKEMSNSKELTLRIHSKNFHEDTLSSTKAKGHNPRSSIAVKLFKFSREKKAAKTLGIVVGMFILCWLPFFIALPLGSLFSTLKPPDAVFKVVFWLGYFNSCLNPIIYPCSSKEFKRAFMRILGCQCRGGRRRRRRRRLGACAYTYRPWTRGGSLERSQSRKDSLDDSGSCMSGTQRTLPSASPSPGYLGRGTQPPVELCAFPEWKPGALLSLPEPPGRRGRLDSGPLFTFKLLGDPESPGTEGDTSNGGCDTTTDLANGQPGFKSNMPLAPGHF
Method in brief: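 Rat α1B receptor from Wistar rat liver was incubated with 0.25 nM [3H]prazosin for 60 min at 25 °C in 50 mM Tris-HCl, pH 7.4, 0.5 mM EDTA. Non-specific binding was defined with 10 μM phentolamine. Bound radioligand was measured by filtration and counting, reported as percent inhibition of specific binding.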

[5] = 0.1 μM compound, read-out: Percentage inhibition of ligand binding, Adrenergic α2A
[6] = 0.1 μM compound, read-out: Percentage inhibition of ligand binding, Adrenergic α2B
[7] = 0.1 μM compound, read-out: Percentage inhibition of ligand binding, Adrenergic α1D
[8] = 0.1 μM compound, read-out: Percentage inhibition of ligand binding, Adrenergic α1B
[9] = read-out: Percentage inhibition of ligand binding, Adrenergic α2A (0.1 μM), compound at 0.1 μM, [3H]MK-912, repeat datapoints each shown
[10] = read-out: Percentage inhibition of ligand binding, Adrenergic α2B (0.1 μM), compound at 0.1 μM, [3H]Rauwolscine, repeat datapoints each shown
[11] = read-out: Percentage inhibition of ligand binding, Adrenergic α1D (0.1 μM), compound at 0.1 μM, [3H]Prazosin, repeat datapoints each shown
[12] = read-out: Percentage inhibition of ligand binding, Adrenergic α1B (0.1 μM), compound at 0.1 μM, [3H]Prazosin, repeat datapoints each shown

Row | Structure (SMILES) | inhibition at 0.1 µM [1, 5] [%] | inhibition at 0.1 µM [2, 6] [%] | inhibition at 0.1 µM [3, 7] [%] | inhibition at 0.1 µM [4, 8] [%] | inhibition at 0.03 µM ([2]; 0.03 μM compound, read-out: Percentage inhibition of ligand binding, Adrenergic α2B) [%] | Percentage inhibition of ligand binding, Adrenergic α2B ([2]; 0.1 μM compound, 0.1 µM) [%] | Ki ([2]; read-out: Ki α2B) [nM] | inhibition at 0.1 µM [1, 9] [%] | inhibition at 0.1 µM [2, 10] [%] | inhibition at 0.1 µM [3, 11] [%] | inhibition at 0.1 µM [4, 12] [%]
1 | Cc1ccc(CCn2c3c(c4c(C)ccc(C)c42)CN(C)CC3)cn1 [II-18] | 14 | -15 | -9 | -7 | – | – | – | – | – | – | –
2 | Cc1cc(Br)c2c(c1)c1c(n2CCc2ccc(C)nc2)CCN(C)C1 [II-39] | 27 | -14 | 13 | 16 | – | – | – | – | – | – | –
3 | CN1CCc2c(n(CC(O)c3ccccc3F)c3ccc(Cl)cc23)C1 (stereo not shown) [II-48] | 26 | 0 | 8 | 27 | – | – | – | – | – | – | –
4 | Cc1ccc(C(C)(O)Cn2c3c(c4cc(Cl)ccc42)CN(C)CC3)cc1 (stereo not shown) [II-56] | 31 | 78 | 11 | 54 | – | – | – | – | – | – | –
5 | CCc1ccc(/C(C)=C/n2c3c(c4cc(C)ccc42)CN(C)CC3)cn1 [II-77] | 43 | 108 | 66 | 54 | – | – | – | – | – | – | –
6 | Cc1ccc2c(c1)c1c(n2C2=C(c3ccc(C)nc3)CCC2)CCN(C)C1 [II-82, 2,8-dimethyl-5-(2-(6-methylpyridin-3-yl)cyclopent-1-enyl)-2,3,4,5-tetrahydro-1H-pyrido[4,3-b]indole] | 45 | 48 | 23 | 13 | 35 | 53 | 26.8 | – | – | – | –
7 | C/C(=C\n1c2c(c3cc(C)ccc31)CN(C)CC2)c1ccc(F)nc1 [II-96] | 49 | 95 | 31 | 39 | – | – | – | – | – | – | –
8 | CN1CCc2c(c3cccnc3n2CCc2ccc(C(F)(F)F)nc2)C1 [II-103, 6-methyl-9-(2-(6-(trifluoromethyl)pyridin-3-yl)ethyl)-6,7,8,9-tetrahydro-5H-pyrrolo[2,3-b:4,5-c′]dipyridine] | -5 | 35 | 8 | 1 | – | – | – | – | – | – | –
9 | Cc1cnc2c(c1)c1c(n2CCc2ccc(C(F)(F)F)nc2)CCN(C)C1 [II-119, 3,6-dimethyl-9-(2-(6-(trifluoromethyl)pyridin-3-yl)ethyl)-6,7,8,9-tetrahydro-5H-pyrrolo[2,3-b:4,5-c′]dipyridine] | – | – | – | – | – | – | – | -4 | 27 | 53 | 23
10 | CCC1c2c(c3cc(Cl)ccc3n2CC(C)(O)c2ccc(F)cc2)CCN1C (stereo not shown) [II-161] | – | – | – | – | – | – | – | 7 | 13 | 2 | 7
